Test results: US7109317B1, “FK506-based regulation of biological events” (President and Fellows of Harvard College, priority 1998, dated 2006)

Tests used:
calcineurin = experiment: NFAT-SEAP reporter gene assay (calcineurin inhibition assay), PMA/ionomycin-stimulated; assay type: cell-based, human; settings: dose-dependent suppression of PMA/ionomycin-induced activation of NFAT-SEAP reporter, transient transfection
Protocol: (§1) In particular, we transfected human TAg Jurkat T cells with a reporter construct, NFAT-SEAP, which consists of 12 copies of the NFAT response element fused upstream of the gene for secreted alkaline phosphatase (SEAP). Following transfection, the cells were exposed to phorbol myristate acetate (PMA) and ionomycin (IO), which together are able to activate NFAT-SEAP reporter activity. […] Specifically, ten million Jurkat cells per condition were transfected with 500 ng of NFAT-SEAP reporter construct by electroporation (40 ms pulse) and aliquoted at 0.3×10^6/well into a 96-well microtiter plate. […] Cells were incubated 36 hours in a tissue culture incubator, then heat-inactivated for 2 hours at 65° C. Following heating, 100 μL of cell supernatants were transferred to a replica plate containing 100 μL of assay buffer (120 μM 4-methylumbelliferyl phosphate in 2M diethanolamine bicarbonate, pH 10). Assays were incubated 8 hours before reading on a Fluoroskan plate reader.

mink lung cells = experiment: Suppression of a rapamycin-dependent effect in mink lung cells; assay type: cell-based; settings: unpublished observations
Excerpt: Other possibilities for the reduced activity of derivatives in this assay are 1) compound insolubility in tissue culture media, 2) inability of compound to penetrate the cell membrane, or 3) inability of compound to bind to FKBP. To rule out these other possibilities, we tested two of the derivatives for their ability to suppress a rapamycin-dependent effect in mink lung cells (Paul A Clemons and Brent Stockwell, unpublished observations).

[1] = system: endogenous calcineurin (NFAT-SEAP reporter, human TAg Jurkat T cells); experiment: NFAT-SEAP reporter assay (calcineurin inhibition assay), PMA + ionomycin stimulated human TAg Jurkat T cells; assay type: cell-based; settings: for inhibition of NFAT-SEAP activity: PMA/ionomycin-induced reporter activity
Excerpt: A similar strategy can be used to identify bump-hole pairs for the CAB domain.
Each of the residues in question is part of the CAB minimal binding domain structure. […] These mutations may be inserted randomly or in a directed fashion, as described above for FKBP.
as §1

mink lung cells (FKBP) = experiment: rapamycin-dependent effect in mink lung cells, suppression by FK506 derivatives; assay type: cell-based
Excerpt: To rule out these other possibilities, we tested two of the derivatives for their ability to suppress a rapamycin-dependent effect in mink lung cells (Paul A Clemons and Brent Stockwell, unpublished observations).

[2] = system: fCAB, CnA (12–394) fused to CnB (3–170), human calcineurin A (SEQ ID NO: 33) and calcineurin B (SEQ ID NO: 35); experiment: NFAT-SEAP reporter assay with overexpressed full length CAB (fCAB); assay type: cell-based; settings: 500–5000 ng fCAB construct DNA, 500 ng NFAT-SEAP
Protocol: Primers containing restriction sites were prepared in order to amplify two different fragments of calcineurin A, corresponding the full-length CAB (fCAB) and the minimal CAB (mCAB). These PCR fragments were subcloned directionally into the polylinker to generate the following constructs: ATG-XhoI-CnA (12–394)-SalI-SpeI-TAA-EcoRI ATG-XhoI-CnA (340–394)-SalI-SpeI-TAA-EcoRI Primers containing restriction sites were prepared in order to amplify the fragment of calcineurin B corresponding to residues 3–170 of this protein. […] This fusion results in another (SalI/XhoI) fusion which cannot be cut by either enzyme. A similar strategy is possible to generate multimers of the CAB domain, greatly facilitating the production of these reagents. Since all of the restriction enzymes within the coding region are 6-base cutters, they preserve the reading frame for protein synthesis. The mature CAB should have the following amino acid sequence: NH2-Met-Leu-Glu-(CnA frag)-Val-Glu-(CnB frag)-Val-Asp-Thr-Ser-COOH • (SEQ ID NO 22) New mCAB-p65 constructs were verified by sequence analysis.
In particular, we transfected human TAg Jurkat T cells with a reporter construct, NFAT-SEAP, which consists of 12 copies of the NFAT response element fused upstream of the gene for secreted alkaline phosphatase (SEAP). […] Assays were incubated 8 hours before reading on a Fluoroskan plate reader. […]

[3] = system: full length CABs (residues 12–394 of human calcineurin A, SEQ ID NO: 33, fused to residue 2 or residue 3 of calcineurin B, SEQ ID NO: 35) fused to VP16 or …; experiment: SEAP transcription activation assay, full length CABs fused to VP16 or GAL4; assay type: cell-based; settings: FK506 titration, Jurkat T-cells
Excerpt: The summary of our data in this transcription assay is as follows. The full length CABS (residues 12–394 of calcineurin A fused to residue 2 or to residue 3 of Calcinuerin B) are functional when fused to VP16 or to GAL4. They have an EC50 of ˜1 nanoMolar.

[4] = system: 2 tandem minicabs (340–394 of CNA and 3–170 of CNB) fused to VP16, with Gal4 fused to 3 FKBPs; experiment: SEAP transcription activation assay, 2 tandem minicabs fused to VP16; settings: FK506, SEAP
Protocol: (§2) 10 million T-antigen transformed Jurkat T-cells growing in log phase at 37 degrees with 5% CO2 in RPMI medium supplemented with 10% FBS, Penicillin and Streptomycin, and Glutamate are centrifuged for 5 minutes at 1000×g. This pellet is washed with RPMI without phenol-red and re-pelleted by centrifugation at 1000×g for 5 minutes. 200 microliters of phenol-free RPMI are used to resuspend each 10 million cells. 200 microliters of these cells are then incubated for 10 minutes at room temperature with 1 microgram of the UAS-SEAP reporter, 1 microgram of the DNA binding domain containing construct, and 5 micrograms of the activation domain containing construct. Electroporation is performed at […], 129 Ohms on a BTX electroporator. The cells are allowed to recover at room temperature for another 10 minutes. They are then resuspended in 10 mLs of RPMI w/o phenol red supplemented with 10% FBS, penicillin, streptomycin, and Glutamate and returned to the 37 degree incubator with 5% CO2 for 24 hrs.
(§3) After recovery, the cells are pelleted by centrifugation at 1000×g for 5 minutes and resuspended in 5 mLs of RPMI w/o phenol red supplemented with 10% FBS, penicillin, streptomycin, and Glutamate. 100 microliters of this cell suspension is plated on a 96 well plate. […]

[5] = system: 340miniCAB-VE constructs (CNA residues 340–394 fused to CNBMG or CNBM, VP16), with FKBP3-GE; experiment: SEAP assay, 340miniCAB-VE with FKBP3-GE; assay type: cell-based, human
Protocol: as §2
After recovery, the cells are pelleted by centrifugation at 1000×g for 5 minutes and resuspended in 5 mLs of RPMI w/o phenol red supplemented with 10% FBS, penicillin, streptomycin, and Glutamate. 100 microliters of this cell suspension is plated on a 96 well plate. Appropriate dilutions of the dimerizer from an ethanolic solution (2 micromolar to 0.2 nanomolar) are made in the same media that the cells were resuspended in such that the concentration of ethanol is less than 1%.

[6] = system: 350miniCABs (CNA residues 350–394 fused to CNBMG or CNBM, VP16), with FKBP3-GE; experiment: SEAP assay, 350miniCAB-VE with FKBP3-GE; assay type: cell-based, human; settings: FK506, with FKBP3-GE
Excerpt: Four such minimal CAB proteins were created by PCR and ligation. Two of the miniCABs contained CNA residues 340–394 fused to either CNBMG or CNBM(340miniCABs). The other two miniCABs contained CNA residues 350–394 fused to either CNBMG or CNBM(350miniCABs). Each of these miniCABs was also fused to the VP16 transactivation domain.
Consistent with the relative activity of CNBMG and CNBM, 340miniCABMG-VE was able to induce higher SEAP activity than 340miniCABM-VE.

[7] = system: (340miniCABMG)2-VE, two 340miniCAB domains in series fused to VP16, with FKBP3-GE; experiment: SEAP assay, two 340miniCAB domains in series (VE) with FKBP3-GE; assay type: cell-based, human; settings: FK506, with FKBP3-GE
Protocol: as §2, §3

[8] = system: (340miniCABMG)3-VE, three 340miniCABs in series fused to VP16, with FKBP3-GE; experiment: SEAP assay, three 340miniCAB domains in series (VE) with FKBP3-GE; assay type: cell-based, human; settings: FK506, with FKBP3-GE
Protocol: as §2, §3

[9] = system: full length CABMG-GE (CNA residues 12–394 fused to CNBMG, GAL4), with FKBP3-VE; experiment: SEAP assay, full length CABMG-GE with FKBP3-VE
Protocol: as §2, §3

| SMILES | fold less immunosuppressive than FK506 (calcineurin) | ability to suppress the effects of rapamycin (mink lung cells) | inhibition of NFAT-SEAP activity [1] | immunosuppressive activity relative to FK506 (dose-dependent suppression of PMA/ionomycin-induced NFAT-SEAP activation) ([1]; fold less immunosuppressive than FK506, transient transfection) | suppression of rapamycin-dependent effect (mink lung cells (FKBP)) | inhibition of reporter gene activity at high level of fCAB overexpression [2] | EC50 [3] | total activation [4] | stimulation of SEAP activity ([5]; FK506-dependent, with FKBP3-GE) | EC50 ([5]; miniCABs, FK506, SEAP) | EC50 of the miniCABs compared with full length CABMG-VE ([5]; relative to full length CABMG-VE) | stimulation of SEAP activity [6] | EC50 [7] | EC50 [8] | enhancement of SEAP activity ([9]; FK506, with FKBP3-VE) | stimulation of SEAP activity in the absence of FK506 ([9]; full CAB-GE and CAB-VE, no FK506) |
| --- | --- | --- | --- | --- | --- | --- | --- | --- | --- | --- | --- | --- | --- | --- | --- | --- |
| CO[C@H]1C[C@@H](C)C/C(C)=C/[C@@H](CC=Cc2ccccc2)C(=O)C[C@H](O)[C@@H](C)[C@@H](/C(C)=C/[C@@H]2CC[C@@H](O)[C@H](OC)C2)OC(=O)[C@@H]2CCCCN2C(=O)C(=O)[C@]2(O)O[C@H]1[C@@H](OC)C[C@H]2C [C40-phenyl-FK506] | at least 30 fold | able to suppress the effects of rapamycin | inability of C40-phenyl-FK506 to inhibit NFAT-SEAP activity | at least 30 fold | able to suppress the effects of rapamycin | – | – | – | – | – | – | – | – | – | – | – |
| C=CC[C@@H]1/C=C(\C)C[C@H](C)C[C@H](OC)[C@H]2O[C@@](O)(C(=O)C(=O)N3CCCC[C@H]3C(=O)O[C@H](/C(C)=C/[C@@H]3CC[C@@H](O)[C@H](OC)C3)[C@H](C)[C@@H](O)CC1=O)[C@H](C)C[C@@H]2OC [FK506] | – | – | antagonizes the effect of PMA+IO in a dose-dependent manner | – | – | a high level of fCAB overexpression overcame the ability of FK506 or its derivatives to inhibit reporter gene activity | ~1 nM | ~20 fold | able to stimulate SEAP activity | ~3 nM | an order of magnitude greater than for full length CABMG-VE | neither of the 350miniCABs were able to stimulate SEAP activity | ~1.3 nM | ~1.3 nM | 2.0 fold | do not stimulate activity in the absence of FK506 |
| CO[C@H]1C[C@@H](C)C/C(C)=C/[C@@H](CC=Cc2ccc(Oc3ccccc3)cc2)C(=O)C[C@H](O)[C@@H](C)[C@@H](/C(C)=C/[C@@H]2CC[C@@H](O)[C@H](OC)C2)OC(=O)[C@@H]2CCCCN2C(=O)C(=O)[C@]2(O)O[C@H]1[C@@H](OC)C[C@H]2C [C40-p-phenoxyphenyl-FK506] | – | – | – | – | able to suppress the effects of rapamycin | – | – | – | – | – | – | – | – | – | – | – |
